How the values were obtained:
[1] = In vitro lipoperoxidation test (TBA assay, MDA); details: DPPC liposomes, 37°C, 30 minutes
[2] = Cell viability MTS assay, conditions of the HCMV assay; type: cell-based; details: human, HELF cells
Description: (§1) Cell viability was measured using the MTS [3- (4,5-dimethylthiazol-2-yl)-5- (3 carboxy methoxy phenyl)-2-(4-sulfophenyl)-2H-tetrazolium] assay. Cell cultures were seeded in 96-well plates and were incubated with different concentrations of compounds in duplicate under the same experimental conditions described for the antiviral assays, (i.e. if the incubation time of the compound on cells was carried for 2 hours and then the evaluation of the antiviral activity was done 72h later, the same timing was used for the cytotoxicity assays, in order to exclude any toxicity effect in the antiviral evaluation). Cell viability was determined using the CellTiter 96 Proliferation Assay Kit (Promega, Madison, WI, USA) according to the manufacturer's instructions. Absorbances were measured using a Microplate Reader (Model 680, BIORAD) at 490 nm. The effect on cell viability at different concentrations of the compound was expressed as a percentage, by comparing absorbances of treated cells with those of cells incubated with culture medium and equal volumes of vehicle. […]
HELF cells were pre-plated in a 96-well plate. […] After five days incubation, cells were observed under an inverted Zeiss LSM510 fluorescence microscope (Zeiss, Oberkochen, Germany) and the percentages of infection were calculated by comparing GFP positive cells in treated and untreated wells.

[3] = Cell viability MTS assay, conditions of the HPV-16 and Ad5 assays; type: cell-based; details: human, HeLa cells; conditions of HPV-16 assay
Description: as §1
(§2) HeLa cells were plated in 96-well plates. […] The GFP-expressing infected cells were observed under an inverted Zeiss LSM510 fluorescence microscope (Zeiss, Oberkochen, Germany) and the percentages of infection were calculated by comparing GFP positive cells in treated and untreated wells.

HSV-2 [4] = assay: Virucidal assay; type: cell-based; details: for viral infectivity: 10 μM of compound
in vitro = details: African green monkey
HSV-2 [5] = assay: Time of addition: pretreatment of cells before HSV-2 infection; type: cell-based; details: compound on cells 2 h before infection, then removed
Description: We performed assays aimed at better understanding the mechanism of action. In the pretreatment assay compound 9d was added on cells before the virus in order to determine if the antiviral activity was due to an interaction with the cells. Moreover, an assay was conducted adding virus and compound on cells without the preincubation performed in previous assays.
Fig 4 Time of addition assays. Compound 9d was added on cells 2 h before infection (PRE-TREATMENT CELLS) and subsequently the inocula were removed and cells were infected or compound and virus were added simultaneously on cells (DURING INFECTION) or after 1 h pre-incubation between the virus and the compound (PRE-TREATMENT VIRUS). Cells were fixed and stained 24 h later and plaques were counted.
Pretreatment: cells were pretreated for 2 h at 37°C with increasing concentrations of compounds, the inocula were then removed, cells washed and HSV-2 was added on cells for 2 h at 37°C. Subsequently the same protocol described above was followed.

HSV-1 = HSV-1 plaquing efficiency assay; type: cell-based
VSV = assay: microbe, parasite or virus in culture; type: cell-based; details: Vesicular stomatitis virus
[6] = Cell viability MTS assay, conditions of the HRoV assay; type: cell-based; details: African green monkey, MA104 cells
Description: as §1, with “vehicle. The 50% cytotoxic concentrations (CC50) and 95% confidence intervals (CIs) were determined using Prism software (Graph-Pad Software, San Diego, CA). For compound 9d a continuous incubation of 1, 2, 3 and 4 days on Vero cells was carried in order to evaluate the toxicity after long exposure the results are shown in S1 Fig and Fig 3.” for “vehicle.”

ZIKV = ZIKV plaquing efficiency assay; type: cell-based, Zika virus (PRVABC59); details: Zika virus, ZIKAV
[7] = Cell viability MTS assay, conditions of the IAV assay; type: cell-based, Canine; details: dog, MDCK cells
Description: Cell viability was measured using the MTS [3- (4,5-dimethylthiazol-2-yl)-5- (3 carboxy methoxy phenyl)-2-(4-sulfophenyl)-2H-tetrazolium] assay. Cell cultures were seeded in 96-well plates and were incubated with different concentrations of compounds in duplicate under the same experimental conditions described for the antiviral assays, (i.e. if the incubation time of the compound on cells was carried for 2 hours and then the evaluation of the antiviral activity was done 72h later, the same timing was used for the cytotoxicity assays, in order to exclude any toxicity effect in the antiviral evaluation). Cell viability was determined using the CellTiter 96 Proliferation Assay Kit (Promega, Madison, WI, USA) according to the manufacturer's instructions. Absorbances were measured using a Microplate Reader (Model 680, BIORAD) at 490 nm. The effect on cell viability at different concentrations of the compound was expressed as a percentage, by comparing absorbances of treated cells with those of cells incubated with culture medium and equal volumes of vehicle. The 50% cytotoxic concentrations (CC50) and 95% confidence intervals (CIs) were determined using Prism software (Graph-Pad Software, San Diego, CA). For compound 9d a continuous incubation of 1, 2, 3 and 4 days on Vero cells was carried in order to evaluate the toxicity after long exposure the results are shown in S1 Fig and Fig 3.

HSV-2 [8] = assay: Time of addition: during infection, no preincubation; type: cell-based; details: Human alphaherpesvirus 2; during-infection assay, virus and compound added simultaneously
HSV-2 [9] = assay: HSV-2 plaquing efficiency assay, compound preincubated with virus 1 h at 37°C; type: cell-based; details: Human alphaherpesvirus 2, HSV-2, Vero cells, 1 h pre-incubation virus/compound
Ad5 = Ad5 inhibition assay on HeLa cells; type: cell-based, Adenovirus 5
Description: as §2

[10] = Cell viability MTS assay on Vero cells; details: African green monkey
HSV-2 [11] = assay: Viral yield reduction, post treatment; details: Human alphaherpesvirus 2

## CC(C)c1ccc(CCN2C(=O)/C(=C/c3ccc(-c4ccc(C(=O)O)c(O)c4)o3)SC2=S)cc1 [Compound 9d, (Z)-2-hydroxy-4-(5-((3-(4-isopropylphenethyl)-4-oxo-2-thioxothiazolidin-5-ylidene)methyl)furan-2-yl)benzoic acid]
[1]
  lipid peroxidation of linoleic acid (MDA): remarkable lipid peroxidation
[2]
  CC50 at 3 h: 5.24 µM
[3]
  CC50 at 72 h: 94.2 µM
HSV-2 [4]; 15' post treatment
  viral infectivity: decreased
HSV-2 [4]; from 30' on
  viral infectivity: completely abrogated
HSV-2 [4]; 1h incubation, then diluted for additional 1, 2, 3 or 4 hours
  infectivity after dilution in drug free medium: not regained
HSV-2 [4]; Human alphaherpesvirus 2, virucidal assay, 1h of exposure, 10^5 pfu HSV-2
  EC50: 37.3 nM
In vitro
  CC50: 24.8 µM
HSV-2 [5]
  antiviral activity in pre-treatment assay: not active
HSV-1; Human alphaherpesvirus 1, read-out: EC50 (95% C.I.)
  EC50: 2.18 nM
HSV-1; Human alphaherpesvirus 1, read-out: EC90 (95% C.I.)
  EC90: 35.1 nM
VSV; read-out: EC50 (95% C.I.)
  EC50: 13.2 nM
VSV; read-out: EC90 (95% C.I.)
  EC90: 117 nM
[6]
  CC50 at 1 h: 156 µM
ZIKV; read-out: EC50 (95% C.I.)
  EC50: 69.9 nM
ZIKV; read-out: EC90 (95% C.I.)
  EC90: 147 nM
[7]
  CC50 at 1 h: 136 µM
other
  melting point: 259 °C (dec.)
HSV-2 [8]
  EC50: 147 nM
HSV-2 [9]; plaques at 24 h, read-out: EC50 (95% C.I.)
  EC50: 6.55 nM
HSV-2 [9]; read-out: EC90 (95% C.I.)
  EC90: 40 nM
Ad5
  antiviral activity against non-enveloped virus: inactive
[10]; CC50, Vero cells, MTS
  CC50: 2090 nM
[10]; CC50, Vero cells, after 96h exposure
  CC50 at 96 h: 2090 nM
[10]; CC50, conditions of HSV-1 assay
  CC50: 2090 nM
[10]; CC50, conditions of HSV-2 acyclovir resistant assay
  CC50: 2090 nM
[10]; CC50, conditions of ZIKAV assay
  CC50: 8850 nM
HSV-2 [11]
  EC50: 33.9 nM

Reference: PMC6285983, “Novel broad spectrum virucidal molecules against enveloped viruses” (PLoS ONE, 2018)
